According to paper PMC7142304, “Oxadiazole-Containing Macrocyclic Peptides Potentiate Azole Activity against Pathogenic Candida Species” (mSphere, 2020):
Values after ≈ are worked out from the molar mass of the structure shown.

Columns and labels:
[1] = system: C. glabrata, C. auris, C. tropicalis, and C. parapsilosis; assay: Fluconazole MIC against azole-resistant non-albicans Candida panel; format: cell-based, Candida species; settings: in the absence of macrocyclic peptides; range over the four strains; YPD, 30°C
Description: (D) Fluconazole dose-response assays for diverse Candida species were conducted in YPD medium without (−) or with the indicated macrocycle (62.5 μM). Growth was measured by absorbance at 600 nm after 24 h (C. parapsilosis [CpLC573], C. auris [Ci 6684, CauLC5083], and C. glabrata [BG2, CgLC1002]) or after 48 h (C. tropicalis [CtLC573]) at 30°C. Optical densities were averaged for duplicate measurements and normalized relative to the no-drug control well for each strain.
To evaluate the activity of the oxadiazole-containing macrocyclic peptides against other fungal pathogens, we tested a panel of azole-resistant non-albicans Candida species, including C. glabrata, C. auris, C. tropicalis, and C. parapsilosis. Dose-response assays were conducted using standard protocols ([14]) with a 2-fold dilution series of fluconazole, without or with JRF1197-2, JRF1198-2, or JRF1199-2 at 62.5 μM, a concentration that enhanced azole activity against C. albicans (Fig. 1).

[2] = system: ABC transporters Cdr1 and Cdr2; assay: Rhodamine-6G intracellular accumulation (efflux inhibition); format: cell-based; settings: 30°C
Description: (A) The effect of JRF1199-1 and JRF1199-2 on filamentation of C. albicans (SN95, CaLC239) was monitored after incubation in YPD medium at 30°C or 39°C for 4 h with shaking. Images were taken by differential interference contrast microscopy. Representative fields from micrographs obtained at the same magnification for all images are presented. (B) C. albicans (Caf2-1, CaLC2742) was grown in YPD medium at 30°C for 3 h with or without 125 μM macrocycle or 10 μg/ml of beauvericin. A concentration of 1 μg/ml of rhodamine-6G was added to the cultures for another 30 min at 30°C. Cells were washed twice with phosphate-buffered saline (PBS), followed by fluorescence microscopy to monitor rhodamine-6G accumulation in cells. (C) The fluorescence of untreated cells or of cells treated with beauvericin or JRF1198-2 was quantitated by flow cytometry. Assays were performed using 250 μl of culture per well, and fluorescence was measured using the FL2 (phycoerythrin) channel in a CytoFLEX flow cytometer (Beckman Coulter Inc.) with at least 20,000 events acquired per sample. Events were gated to capture at least 90% of the entire population analyzed, discarding clumps/cellular debris. […] Growth was measured by absorbance at 600 nm after 24 h (C. parapsilosis [CpLC573], C. auris [Ci 6684, CauLC5083], and C. glabrata [BG2, CgLC1002]) or after 48 h (C. tropicalis [CtLC573]) at 30°C. […]

Compound: OC(Cn1cncn1)(Cn1cncn1)c1ccc(F)cc1F [fluconazole]
- MIC [1]: 32 to 256 µg/mL (≈ 104 to 836 µM)

Compound: beauvericin
- Mean Fluorescence (rhodamine-6G accumulation) ([2]; flow cytometry, FL2 channel, 3 h with 125 μM macrocycle or 10 μg/ml beauvericin, then 1 μg/ml rhodamine-6G for 30 min, at least 20,000 events): 275895.3
- Effect on rhodamine-6G accumulation ([2]; microscopy and flow cytometry, 125 μM macrocycle or 10 μg/ml beauvericin, YPD): enhanced rhodamine-6G accumulation
